According to patent US11440913B2, “Aminoimidazopyridazines as kinase inhibitors” (BRISTOL-MYERS SQUIBB COMPANY, priority 2017, dated 2022):
Read-outs that look alike come from different tables or passages of the source.

Experiments:
[1] = system: MLKL phosphorylation in HT29-L23 human colorectal adenocarcinoma cells; assay: MLKL Phosphorylation High-Content Assay; type: cell-based; settings: 6 h, necroptosis induced with TNFα, SMAC mimetic and Z-VAD, read-out: pMLKL (IC50)
In short: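 HT29-L23 cells pretreated 30 min at 37 °C with compound (6.25 to 0.106 μM final), then necroptosis induced with TNFα 35 ng/mL, SMAC mimetic 700 nM and Z-VAD 140 nM for 6 h. Fixed cells immunostained for MLKL pS358 and imaged; IC50 and Ymax from 4-parameter logistic fit.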

[2] = target: His-GST-TVMV-hRIPK1(1-324) (Homo sapiens (Human), UniProt Q13546); assay: RIPK1 HTRF Binding Assay; settings: HTRF binding, 1 h at rt; read-out: RIPK1 (IC50)
In short: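 HTRF probe-displacement binding: 1 nM His-GST-TVMV-hRIPK1(1-324) (baculovirus construct), 90.6 nM probe, 0.2 nM anti-GST-Tb in 20 mM HEPES, 10 mM MgCl2, 0.015% Brij-35, 4 mM DTT, 0.05 mg/mL BSA. Incubated 1 h at rt; FRET 520/495 nm ratio, inhibition relative to DMSO-only wells.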

Chain of His-GST-TVMV-hRIPK1(1-324) (Q13546 1-324): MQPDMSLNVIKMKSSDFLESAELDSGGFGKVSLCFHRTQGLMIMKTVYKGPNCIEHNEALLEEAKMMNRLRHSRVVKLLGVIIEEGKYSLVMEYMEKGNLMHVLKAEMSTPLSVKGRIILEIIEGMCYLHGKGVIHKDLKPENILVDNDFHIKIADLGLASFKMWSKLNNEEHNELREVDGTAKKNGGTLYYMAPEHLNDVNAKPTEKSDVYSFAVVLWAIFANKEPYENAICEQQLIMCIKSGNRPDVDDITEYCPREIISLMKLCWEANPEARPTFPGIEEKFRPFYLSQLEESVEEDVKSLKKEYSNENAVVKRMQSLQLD

Compound	IC50 ([1]; Homo sapiens) [nM]	IC50 [2] [nM]	IC50 [1] [nM]
[2H]C([2H])([2H])Oc1cc(C)c(-c2ccc3nc(NC(C)=O)cn3n2)cc1C(=O)NCc1cc(OC(F)(F)F)ccc1F [Example 417]	9	4	
COc1cc(F)c(-c2ccc3nc(NC(C)=O)cn3n2)cc1C(=O)NCc1cc(F)ccc1C(=O)N1CCCC1(C)C [Example 419, N-{[2-(2,2-dimethylpyrrolidine-1-carbonyl)-5-fluorophenyl]methyl}-5-{2-acetamidoimidazo [1,2-b]pyridazin-6-yl}-4-fluoro-2-methoxybenzamide]	28	4	
COc1cc(F)c(-c2ccc3nc(NC(C)=O)cn3n2)cc1C(=O)NCc1c(F)cccc1OC [Example 420, 5-{2-acetamidoimidazo [1,2-b]pyridazin-6-yl}-4-fluoro-N-[(2-fluoro-6-methoxyphenyl)methyl]-2-methoxybenzamide]	77	90	
COc1cc(C)c(-c2ccc3nc(NC(C)=O)cn3n2)cc1C(=O)NCc1cc(OC(F)(F)F)ccc1F [Example 421, 5-{2-acetamidoimidazo [1,2-b]pyridazin-6-yl}-N-{[2-fluoro-5-(trifluoromethoxy)phenyl]methyl}-2-methoxy-4-methylbenzamide]	10	2	
COc1cc(C)c(-c2ccc3nc(NC(=O)CO)cn3n2)cc1C(=O)NCc1cc(OC(F)(F)F)ccc1F [Example 422, N-(2-fluoro-5-(trifluoromethoxy)benzyl)-5-(2-(2-hydroxyacetamido)imidazo[1,2-b]pyridazin-6-yl)-2-methoxy-4-methylbenzamide]	75	6	
CC(=O)Nc1cn2nc(-c3cccc(C(=O)NCc4cc(OC(F)(F)F)ccc4F)c3F)ccc2n1 [Example 424, 3-{2-acetamidoimidazo [1,2-b]pyridazin-6-yl}-2-fluoro-N-{[2-fluoro-5-(trifluoromethoxy)phenyl]methyl} benzamide]	3	2	
O=C(CN1CCC(F)(F)CC1)Nc1cn2nc(-c3cccc(C(=O)NCc4cc(OC(F)(F)F)ccc4F)c3F)ccc2n1 [Example 427, 3-{2-[2-(4,4-difluoropiperidin-1-yl)acetamido]imidazo [1,2-b]pyridazin-6-yl}-2-fluoro-N-{[2-fluoro-5-(trifluoromethoxy)phenyl]methyl} benzamide]	3	7	
O=C(CN1CCC(C(F)(F)F)CC1)Nc1cn2nc(-c3cccc(C(=O)NCC[C@@H](O)c4ccc(Cl)cc4)c3F)ccc2n1 [Example 428, N-[(3R)-3-(4-chlorophenyl)-3-hydroxypropyl]-2-fluoro-3-(2-{2-[4-(trifluoromethyl)piperidin-1-yl]acetamido}imidazo[1,2-b]pyridazin-6-yl)benzamide]	9	12	
[2H]C([2H])([2H])[C@H](NC(=O)c1ccc(C)c(-c2ccc3nc(NC(C)=O)cn3n2)c1F)c1cc(OC(F)(F)F)ccc1F [Example 429, 3-{2-acetamidoimidazo [1,2-b]pyridazin-6-yl}-2-fluoro-N-[(1S)-1-[2-fluoro-5-(trifluoromethoxy)phenyl](2,2,2-Â^2Hâ,f)ethyl]-4-methylbenzamide]	20	9	
CC(=O)Nc1cn2nc(-c3cc(C(=O)NCc4cc(OC(F)(F)F)ccc4F)ccc3Cl)ccc2n1 [Example 431, 4-chloro-3-{2-acetamidoimidazo [1,2-b]pyridazin-6-yl}-N-{[2-fluoro-5-(trifluoromethoxy)phenyl]methyl} benzamide]	91	7	
CC(=O)Nc1cn2nc(-c3cc(C(=O)NCc4cc(OC(F)(F)F)ccc4F)ccc3F)ccc2n1 [Example 432, 3-{2-acetamidoimidazo [1,2-b]pyridazin-6-yl}-4-fluoro-N-{[2-fluoro-5-(trifluoromethoxy)phenyl]methyl} benzamide]	149	36	
N-({3,5-difluoro-2-[(3S)-oxolan- 3-yloxy]phenyl}methyl)-5-{2- acetamidoimidazo[1,2-b]pyridazin- 6-yl}-2-(D3)methoxypyridine- 3-carboxamide [Example 45]		13	25
N-[(1R)-1-[2-fluoro-5- (trifluoromethyl)- phenyl]ethyl]-2- methyl-5-(2-{2-[4- (trifluoromethyl)piperidin-1- yl]acetamido}imidazo[1,2- b]pyridazin-6-yl)pyridine-3- carboxamide [Example 331]		42	68
N-{[3,5-difluoro-2-(oxan-3- yloxy)phenyl]methyl}-5-{2- acetamidoimidazo[1,2-b]pyridazin- 6-yl}-2-(deutero)methoxy-6- methylpyridine-3-carboxamide [Example 170]		4	3
N-{[3,5-difluoro-2-(oxan-4- yloxy)phenyl](deutero)methyl}- 5-{2-acetamidoimidazo[1,2-b] pyridazin-6-yl}- 2-methylpyridine- 3-carboxamide [Example 192]		3	5
